Laboratory results from patent publication EP4800006A1, “NICOTINAMIDE PHOSPHORIBOSYL TRANSFERASE AGONIST AND USE THEREOF” (Nanjing Reju Therapeutics Co. Ltd., priority 2023, dated 2025).
In brackets after ≈: the same amount, converted by molar mass.

Columns and labels:
Solubility of compounds = format: physicochemical; conditions: acidic pH conditions
Procedure: The main objective of this example is to investigate the solubility of the compounds in Example 1.
Method: A certain amoun of NPL-00, NPL-000, and NPL-1 were weighed and transferred into centrifuge tubes, respectively. Solvent was added to each tube, and the pH value of the system was adjusted with hydrochloric acid and sodium hydroxide. The mixture was shaken for 30 s every 5 min, and the dissolution state was observed within 30 min. If incomplete dissolution was observed, additional solvent was supplemented, and the above operations were repeated until the compounds were completely dissolved, and the volume of solvent at this moment was recorded. The solubility of less than 0.1 mg/mL was defined as "insoluble."

mouse skin = assay: NAD+ level in mouse skin after topical application; format: in vivo, C57BL/6 mice; conditions: 3% topical application to the skin, 6 hours, compared to the control group; FIG. 3
Procedure: The main objective of this example is to investigate the effect of the Compound NPL-1 in Example 1 on elevating NAD+ level in mouse skin via topical administration.
Method: Male C57BL/6 mice with 8-9 weeks old were treated with 3% of the Compound NPL-1 via topical application to the skin, and mouse skin samples were collected 6 hours later for NAD+ level detection.

C2C12 cells = assay: Differentiation of C2C12 cells (MYH1 immunostaining); format: cell-based; conditions: 0.3 µM, 7 days, medium with 2% HBS, vs control group; FIG. 4
Procedure: The main objective of this example is to investigate the promotive effect of the compounds in Example 1 on the differentiation of muscle stem cells.
Method: C2C12 cells were selected and seeded into culture plates. After stabilization for 48 h, the medium was replaced with a medium containing 2% HBS to induce differentiation of the C2C12 cells. Meanwhile, the treatment group was treated with 0.3 µM NPL-1, while the control group was treated with an equivalent volume of the compound solvent. After continuous culture for 7 days, immunohistochemical staining was performed using MYH1 antibody, and the cell nuclei were stained with DAPI. Finally, the two channels were merged to analyze the degree of cell differentiation.

Hacat cells = assay: ROS in UVA-irradiated Hacat cells (DCFH-DA fluorescence), antioxidation; format: cell-based; conditions: 10 µM, 24 h then UVA, vs model group, FIG. 8
Procedure: The main objective of this example is to investigate the antioxidation effect of the compounds in Example 1.
Method: Hacat cells were selected and seeded into culture plates. After stabilization for 24 h, the NPL-1 group was treated with 10 µM NPL-1, while the control group and model group were treated with an equivalent volume of the compound solvent, respectively. After 24 h of treatment, all groups except the control group were irradiated with UVA for modeling. At 0.5 h after the modeling was completed, the fluorescent probe DCFH-DA was added and incubated for 0.5 h, followed by fluorescence intensity measurement to evaluate the expression level of ROS.

U2OS cells = assay: Protective effect on U2OS cells against FK866-induced cytotoxicity (Cell Titer-Glo viability); format: cell-based; conditions: Homo sapiens, 10 nM FK866, test compound 10 µM, 72 h, viability relative to control minus that of model group, read-out: Percentage increase in cell viability
Procedure: The main objective of this example is to investigate the protective effects of the compounds in Example 1 against the cytotoxicity resulting from FK866-mediated reduction in NAD+ levels.
Method: U2OS cells were selected and seeded into culture plates. After cell stabilization for 1 day, 10 nM of FK866 was added to all groups except the control group to induce cell death. Meanwhile, the test compounds at a concentration of 10 µM were added to the corresponding drug treatment groups, respectively. An equivalent volume of the compound solvent was added to the control group and the model group, respectively. Following incubation for 72 h, Cell Titer-Glo Luminescent cell viability assay reagent (manufacturer: Promega) was added to each well. After mixing well and incubation for 10 minutes, luminescence was detected using a microplate reader with full-wavelength scanning. The pharmacological efficacy of the compounds, expressed as the percentage increase in cell viability, was calculated by subtracting the percentage of the cell viability in the model group relative to the control group from the percentage of the cell viability in the compound-treated group relative to the control group.

tibialis anterior = assay: CTX-induced muscle injury model (tibialis anterior, HE staining); format: in vivo, C57BL/6 mice; conditions: 3 mg/kg intraperitoneal once daily, 10 µM CTX into tibialis anterior, vs model group; FIG. 5
Procedure: The main objective of this example is to investigate the protective effect of the compounds in Example 1 in a muscle injury model. Method: Male C57BL/6 mice with 8-9 weeks old in the model group and the NPL-4 group were injected intraperitoneally with the corresponding solvent or compounds, respectively, for 1 consecutive week. Subsequently, 10 µM CTX was injected into the tibialis anterior for modeling. After another 7 days, the tibialis anterior was harvested for HE staining to evaluate the injury status of the tibialis anterior of the mice. The grouping was as follows: • Control group: 8 male C57BL/6 mice with 8-9 weeks old were treated with the same solvent as in the NPL-4 group via intraperitoneal injection once daily. One week later, normal saline was injected into the tibialis anterior for modeling, while intraperitoneal injection was continued. Seven days later, the tibialis anterior was harvested for HE staining. • Model group: 8 male C57BL/6 mice with 8-9 weeks old were treated with the same solvent as in the NPL-4 group via intraperitoneal injection once daily. One week later, 10 µM CTX was injected into the tibialis anterior for modeling, while intraperitoneal injection was continued. […]

HSF cells = assay: p16 mRNA in UVA-irradiated HSF cells (qPCR), anti-aging; format: cell-based; conditions: 10 µM, 24 h then UVA, mRNA by qPCR, vs model group; FIG. 7
Procedure: The main objective of this example is to investigate the anti-aging effect of the compounds in Example 1.
Method: HSF cells were selected and seeded into culture plates. After stabilization for 24 h, the NPL-4 group was treated with 10 µM NPL-4, while the control group and model group were treated with an equivalent volume of the compound solvent, respectively. After 24 h of treatment, all groups except the control group were irradiated with UVA to induce cell senescence. The cells were then collected and RNA was extracted. The mRNA level of the senescence-associated gene p16 was determined using qPCR.

[1] = test system: Transgenic zebrafish with green fluorescent mitochondria; assay: Mitochondrial function in zebrafish, cobalt chloride model; format: in vivo; conditions: 0.25%, 22 h then cobalt chloride 4 h, vs model group; FIG. 10
Procedure: The main objective of this example is to investigate the effect of the compounds in Example 1 on mitochondrial function.
Method: Transgenic zebrafish with green fluorescent mitochondria were placed in a 6-well plate. The NPL-4 group was treated with NPL-4 at a concentration of 0.25%, while the control group and model group were treated with an equivalent volume of the compound solvent. After treatment in the dark for 22 h, all groups except the control group were treated with cobalt chloride for modeling. Following incubation in the dark for additional 4 h, the fluorescence intensity of the zebrafish was detected.

Wild-type zebrafish = assay: DNA damage repair in zebrafish, hydrogen peroxide model (comet assay); format: in vivo; conditions: 0.25% for 5 days, DNA olive tail moment, vs model group, FIG. 11
Procedure: The main objective of this example is to investigate the repairing effect of the compounds in Example 1 on DNA damage.
Method: Wild-type zebrafish were placed in a 6-well plate. All groups except the control group were treated with hydrogen peroxide to establish a zebrafish DNA damage model. Meanwhile, the NPL-4 group was treated with 0.25% NPL-4 for 5 days, while the control group and model group were treated with an equivalent volume of the compound solvent. The medium was renewed daily. Subsequently, zebrafish samples were collected and ground to prepare cell suspensions. Electrophoresis was performed using a comet assay kit, and data were collected and analyzed using comet analysis software. The DNA olive tail moment value of zebrafish cells was analyzed to evaluate the degree of DNA damage.

Q: With CC(C)(C)c1cccc(C#N)c1OCC(=O)Nc1ccc(O)cc1 [NPL-000] as the molecule, how does the solubility (Solubility of compounds) read?
A: < 100 µg/mL

Q: Which solubility (Solubility of compounds) does the source give for CC(C)(C)c1ccccc1OCC(=O)Nc1ccc(O)cc1 [NPL-00] here?
A: < 100 µg/mL

Q: What does the source list for CC(C)(C)c1ncccc1OCC(=O)Nc1ccc(O)cc1 [NPL-1]?
A: NAD+ level in the mouse skin (mouse skin): effectively elevated; expression level of MYH1 (C2C12 cells): significantly higher; expression level of ROS (Hacat cells): markedly decreased; solubility (Solubility of compounds): 7000 µg/mL (≈ 23.3 mM)

Q: What does the source list for CC(=O)Nc1ccc(NC(=O)COc2cccnc2C(C)(C)C)cc1 [NPL-4]?
A: increase in cell viability over FK866 model group at 10 µM (U2OS cells): 128%; damaged area (tibialis anterior): significantly smaller; expression of p16 (HSF cells): markedly down-regulated; mitochondrial fluorescence intensity [1]: significantly enhanced; DNA damage (Wild-type zebrafish): significantly ameliorated

Q: For CC(C)(C)c1ncncc1CCC(=O)Nc1ccc(O)cc1 [NPL-51, 3-(4-(tert-butyl)pyrimidin-5-yl)-N-(4-hydroxyphenyl)propionamide], which increase in cell viability over FK866 model group at 10 µM (U2OS cells) is on record?
A: 105%

Q: Which increase in cell viability over FK866 model group at 10 µM (U2OS cells) does the source give for CC(=O)Nc1ccc(NC(=O)CCc2nccnc2C(C)(C)C)cc1 [NPL-67, N-(4-acetaminophenyl)-3-(3-(tert-butyl)pyrazin-2-yl)propionamide] here?
A: 99.3%

Q: With CC(=O)Nc1ccc(NC(=O)COc2nccnc2C(C)(C)C)cc1 [NPL-70, N-(4-acetaminophenyl)-2-((3-(tert-butyl)pyrazin-2-yl)oxy)acetamide] as the molecule, how does the increase in cell viability over FK866 model group at 10 µM (U2OS cells) read?
A: 112%

Q: Which increase in cell viability over FK866 model group at 10 µM (U2OS cells) does the source give for CC(C)(C)c1nccnc1OCC(=O)Nc1ccc2[nH]c(=O)oc2c1 [NPL-71, 2-((3-(tert-butyl)pyrazin-2-yl)oxy)-N-(2-oxo-2,3-dihydrobenzo[d]oxazol-6-yl)acetamide] here?
A: 106%

Q: With CC(C)(C)c1nccnc1CCC(=O)Nc1ccc(O)cc1 [NPL-74, 3-(3-(tert-butyl)pyrazin-2-yl)-N-(4-hydroxyphenyl)propionamide] as the molecule, how does the increase in cell viability over FK866 model group at 10 µM (U2OS cells) read?
A: 98.6%

Q: Which increase in cell viability over FK866 model group at 10 µM (U2OS cells) does the source give for CC(C)(C)c1nccnc1CCC(=O)Nc1ccc2[nH]c(=O)oc2c1 [NPL-76, 3-(3-(tert-butyl)pyrazin-2-yl)-N-(2-oxo-2,3-dihydrobenzo[d]oxazol-6-yl)propionamide] here?
A: 99%

Q: Which increase in cell viability over FK866 model group at 10 µM (U2OS cells) does the source give for CC(=O)Nc1ccc(NC(=O)COc2ncncc2C(C)(C)C)cc1 [NPL-79, 2-((5-(tert-butyl)pyrimidin-4-yl)oxy)-N-(4-(acetamido)phenyl)acetamide] here?
A: 97.9%
